In patent publication US20120190669A1, “OXINDOLE COMPOUNDS” (CYLENE PHARMACEUTICALS, INC., priority 2008, published 2012):

Molecular target: recombinant PIM-1 (Homo sapiens, UniProt P11309)
Assay: PIM-1 kinase assay (radiometric, 15 uM ATP, DMSO 4%)
Format: biochemical
Settings: Table 1; % inhibition at the high dose (2 micromolar) in a single screening assay; 15 μM ATP
Protocol: The following procedure was used to assay the PIM-1 kinase activity of compounds of the invention. Other methods for assaying PIM-1 and other PIM kinases, as well as methods to assay for activity against the various kinases in FIG. 1, are known in the art.
(specific activity approx. 500 cpm/pmol), DMSO 4% and test inhibitor compound at the required concentration. The reaction was initiated by the addition of the Magnesium ATP mixture. After 40 min incubation at 23° C., the reactions were quenched by the addition of 100 ul 0.75% Phosphoric acid, and the labeled peptide collected by filtration through a phosphocellulose filter plate. The plate was washed 4 times with 0.075% phosphoric acid (100 ul per well) and then, after the addition of scintillation fluid (20 ul per well), the counts were measured by a scintillation counter.

recombinant PIM-1, sequence (P11309 whole entry): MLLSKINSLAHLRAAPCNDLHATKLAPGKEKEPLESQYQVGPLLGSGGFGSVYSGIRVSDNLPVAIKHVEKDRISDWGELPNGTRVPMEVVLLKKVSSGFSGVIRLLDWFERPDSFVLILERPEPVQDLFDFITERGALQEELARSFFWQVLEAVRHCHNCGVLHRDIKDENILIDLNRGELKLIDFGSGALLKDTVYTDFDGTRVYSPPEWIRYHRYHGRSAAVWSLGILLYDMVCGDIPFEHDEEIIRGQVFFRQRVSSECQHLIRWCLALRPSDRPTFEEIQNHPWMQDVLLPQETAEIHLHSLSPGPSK

inhibition at 2 µM | SMILES
9.42% | CN1CCCCC1CNC(=O)c1cccc(-c2coc(/C=C3/C(=O)Nc4ccc(F)cc43)c2)c1 (stereo not drawn) [Compound 93]
13.8% | CN1CCCC(NC(=O)c2ccccc2-c2ccc(/C=C3/C(=O)Nc4ccccc43)o2)C1 (stereo not drawn) [Compound 56]
-9.22% | CN1CCCCC1CNC(=O)c1cccc(-c2ccc(/C=C3/C(=O)Nc4ccc(Cl)cc43)o2)c1 (stereo not drawn) [Compound 44]
5.32% | CCN1CCCC1CNC(=O)c1cc(-c2ccc(/C=C3/C(=O)Nc4ccc(F)cc43)o2)ccc1Cl (stereo not drawn) [Compound 71]
46% | O=C1Nc2ccc(F)cc2/C1=C\c1ccc(-c2cccc(C(=O)NC3CC3)c2)o1 [Compound 20]
0.28% | O=C1Nc2ccc(F)cc2/C1=C\c1ccc(-c2ccccc2C(=O)NCCN2CCCC2)o1 [Compound 62]
8.84% | CN(C)C1CCN(C(=O)c2ccccc2-c2ccc(/C=C3/C(=O)Nc4ccc(F)cc43)o2)CC1 [Compound 67]
10.3% | CN1CCCC(NC(=O)c2ccccc2-c2ccc(/C=C3/C(=O)Nc4ccc(F)cc43)o2)C1 (stereo not drawn) [Compound 63]
-2.39% | Cn1cncc1CNC(=O)c1ccccc1-c1ccc(/C=C2/C(=O)Nc3ccc(F)cc32)o1 [Compound 65]
51.9% | CN(C)C1CCN(C(=O)c2ccc(-c3ccc(/C=C4/C(=O)Nc5ccc(F)cc54)o3)cc2)CC1 [Compound 87]
22.2% | O=C1Nc2ccc(Cl)cc2/C1=C\c1ccc(-c2ccc(Cl)c(C(=O)NCCN3CCCC3)c2)o1 [Compound 106]
37.1% | CN1CCC(N(C)C(=O)c2cc(-c3ccc(/C=C4/C(=O)Nc5ccc(F)cc54)o3)ccc2Cl)C1 (stereo not drawn) [Compound 72]
91.3% | CCN1CCCC1CNC(=O)c1ccc(-c2ccc(/C=C3/C(=O)Nc4ccc(F)cc43)o2)cc1 (stereo not drawn) [Compound 84]
23.5% | CN1CCCCC1CNC(=O)c1cccc(-c2ccc(/C=C3/C(=O)Nc4ccc([N+](=O)[O-])cc43)o2)c1 (stereo not drawn) [Compound 53]
21% | O=C1Nc2cc(F)ccc2/C1=C\c1ccc(-c2cccc(C(=O)NCCN3CCCC3)c2)o1 [Compound 39]
49.6% | COCCNC(=O)c1cccc(-c2ccc(/C=C3/C(=O)Nc4ccc(F)cc43)o2)c1 [Compound 17]
42.2% | O=C1Nc2ccc(F)cc2/C1=C\c1ccc(-c2cccc(C(=O)N3CCOCC3)c2)o1 [Compound 19]
-18.8% | CN1CCN(C(=O)c2cc(-c3ccc(/C=C4/C(=O)Nc5ccccc54)o3)ccc2Cl)CC1 [Compound 26]
-4.56% | CN1CCCCC1CNC(=O)c1cccc(-c2ccc(/C=C3/C(=O)Nc4ccc(C(F)(F)F)cc43)o2)c1 (stereo not drawn) [Compound 48]
5.6% | O=C1Nc2ccccc2/C1=C\c1ccc(-c2ccc(Cl)c(C(=O)NCCN3CCCC3)c2)o1 [Compound 11]

More lines, now with the values behind:

SMILES | inhibition at 2 µM
O=C1Nc2ccccc2/C1=C\c1ccc(-c2ccc(Cl)c(C(=O)NCCC3CCCN3)c2)o1 (stereo not drawn) [Compound 28] | -37.6%
CCN(CC)CCNC(=O)c1ccc(-c2ccc(/C=C3/C(=O)Nc4ccc(F)cc43)o2)cc1 [Compound 80] | 94.2%
O=C1Nc2c(Cl)cccc2/C1=C\c1ccc(-c2cccc(C(=O)NCCN3CCCC3)c2)o1 [Compound 41] | 19%
CN(CCc1ccccn1)C(=O)c1cccc(-c2ccc(/C=C3/C(=O)Nc4ccc(Cl)cc43)o2)c1 [Compound 171] | -0.11%
O=C1Nc2ccccc2/C1=C\c1ccc(-c2ccccc2C(=O)NCCN2CCCC2)o1 [Compound 54] | 3.52%
O=C1Nc2ccc(C(F)(F)F)cc2/C1=C\c1ccc(-c2cccc(C(=O)NCCN3CCCC3)c2)o1 [Compound 47] | 22.9%
CN1CCN(c2ccc(-c3ccc(/C=C4/C(=O)Nc5ccccc54)o3)cn2)CC1 [Compound 126] | 19.5%
CCOC(=O)c1cncc(-c2ccc(/C=C3/C(=O)Nc4ccc(Cl)cc43)o2)c1 [Compound 145] | 34.5%
CN(CCN1CCCC1)C(=O)c1ccccc1-c1ccc(/C=C2/C(=O)Nc3ccccc32)o1 [Compound 55] | 2.91%
Cc1cc(NCCN2CCCC2)c2cccc(-c3ccc(/C=C4/C(=O)Nc5ccc(Cl)cc54)o3)c2n1 [Compound 139] | -23.4%
CN(C)CCCOc1ccc(-c2ccc(/C=C3/C(=O)Nc4ccccc43)o2)cn1 [Compound 125] | 41.5%
Cn1ccnc1CNC(=O)c1cccc(-c2ccc(/C=C3/C(=O)Nc4ccc(Cl)cc43)o2)c1 [Compound 119] | 37%
O=C1Nc2ccccc2/C1=C\c1ccc(-c2ccc(C(=O)NCc3ccncc3)nc2)o1 [Compound 135] | 43.6%
O=C1Nc2ccccc2/C1=C\c1ccc(-c2ccc(Cl)c(C(=O)NCC3CCCN3)c2)o1 (stereo not drawn) [Compound 29] | -33.4%
O=C1Nc2ccccc2/C1=C\c1ccc(-c2ccc(C(=O)NCCN3CCCC3)c(F)c2)o1 [Compound 159] | 11.3%
COC(=O)c1ccc(-c2ccc(/C=C3/C(=O)Nc4ccccc43)o2)c(N)c1 [Compound 143] | 30.6%
Cc1cnc(CNC(=O)c2cccc(-c3ccc(/C=C4/C(=O)Nc5ccc(Cl)cc54)o3)c2)cn1 [Compound 107] | 21%
CN1CCCCC1CNC(=O)c1cccc(-c2ccc(/C=C3/C(=O)Nc4c3cccc4C(F)(F)F)o2)c1 (stereo not drawn) [Compound 51] | 2.32%
CON(C)C(=O)c1cccc(-c2ccc(/C=C3/C(=O)Nc4ccc(Cl)cc43)o2)c1 [Compound 176] | -59.6%
O=C1Nc2ccccc2/C1=C\c1ccc(-c2ccc(C(=O)NCCCn3ccnc3)c(F)c2)o1 [Compound 161] | 28.4%
O=C1Nc2ccc(Cl)cc2/C1=C\c1ccc(-c2cccc(C(=O)NCc3ccnc(N4CCCC4)c3)c2)o1 [Compound 141] | 26.3%
O=C1Nc2ccc([N+](=O)[O-])cc2/C1=C\c1ccc(-c2cccc(C(=O)NCCN3CCCC3)c2)o1 [Compound 52] | 20.4%
CN1CCCN(C(=O)c2ccc(-c3ccc(/C=C4/C(=O)Nc5ccccc54)o3)cc2F)CC1 [Compound 160] | -17.1%
O=C1CN(C(=O)c2cccc(-c3ccc(/C=C4/C(=O)Nc5ccccc54)o3)c2)CCN1 [Compound 23] | -14.2%
CCN(CC)CCNC(=O)c1ccc(-c2ccc(/C=C3/C(=O)Nc4ccccc43)o2)cn1 [Compound 134] | 32.4%
O=C1Nc2ccc(F)cc2/C1=C\c1cc(-c2cccc(C(=O)NCCN3CCCC3)c2)co1 [Compound 88] | 9%
O=C1Nc2c(F)cccc2/C1=C\c1ccc(-c2ccc(Cl)c(C(=O)NCCN3CCCC3)c2)o1 [Compound 104] | -5.3%

Same assay, conditions: Table 1; given for compounds with IC50 at or below 2 micromolar; 15 uM ATP; read-out: PIM-1 IC50

IC50 | SMILES
< 1 µM | CCN1CCCC1CNC(=O)c1cncc(-c2ccc(/C=C3/C(=O)Nc4ccc(Cl)cc43)o2)c1 (stereo not drawn) [Compound 150]
< 2 µM | CN(C)C1CCN(C(=O)c2ccc(-c3ccc(/C=C4/C(=O)Nc5ccc(F)cc54)o3)cc2)CC1 [Compound 87]
< 1 µM | O=C1Nc2ccc(Cl)cc2/C1=C\c1ccc(-c2cncc(C(=O)NCCN3CCCC3)c2)o1 [Compound 147]
< 1 µM | CCN1CCCC1CNC(=O)c1ccc(-c2ccc(/C=C3/C(=O)Nc4ccc(F)cc43)o2)cc1 (stereo not drawn) [Compound 84]
< 1 µM | CN1CCCC(NC(=O)c2ccc(-c3ccc(/C=C4/C(=O)Nc5ccccc54)o3)cc2)C1 (stereo not drawn) [Compound 35]
< 2 µM | CN1CCCC(NC(=O)c2ccc(Cl)c(-c3ccc(/C=C4/C(=O)Nc5ccc(F)cc54)o3)c2)C1 (stereo not drawn) [Compound 101]
< 1 µM | Cn1cncc1CNC(=O)c1cccc(-c2ccc(/C=C3/C(=O)Nc4ccc(F)cc43)o2)c1 [Compound 22]

Continued, compound first:

SMILES | IC50
CCN(CC)CCNC(=O)c1ccc(-c2ccc(/C=C3/C(=O)Nc4ccc(F)cc43)o2)cc1 [Compound 80] | < 1 µM
O=C1Nc2ccccc2/C1=C\c1ccc(-c2ccc(C(=O)NCCN3CCCC3)c(O)c2)o1 [Compound 182] | < 2 µM
C/C(=C1\C(=O)Nc2ccccc21)c1ccc(-c2cccc(C(=O)NCCN3CCCC3)c2)o1 [Compound 156] | < 2 µM
O=C1Nc2ccc(Cl)cc2/C1=C\c1ccc(-c2cccc(C(=O)NCC(O)c3ccccn3)c2)o1 (stereo not drawn) [Compound 188] | < 1 µM
O=C1Nc2ccc(Cl)cc2/C1=C\c1ccc(-c2cncc(C(=O)O)c2)o1 [Compound 146] | < 2 µM
Cc1cc(-c2cccc(C(=O)NCCN3CCCC3)c2)oc1/C=C1/C(=O)Nc2ccccc21 [Compound 157] | < 2 µM
O=C1Nc2ccc(Cl)cc2/C1=C\c1ccc(-c2cccc(C(=O)NCc3cccnc3)c2)o1 [Compound 116] | < 1 µM
O=C1Nc2ccc(Cl)cc2/C1=C\c1ccc(-c2cccc(C(=O)NCCCn3ccnc3)c2)o1 [Compound 123] | < 1 µM
O=C1Nc2ccccc2/C1=C\c1ccc(-c2cccc(CO)c2)o1 [Compound 163] | < 2 µM
O=C1Nc2ccc(Cl)cc2/C1=C\c1ccc(-c2cccc(C(=O)NCC(O)c3cccnc3)c2)o1 (stereo not drawn) [Compound 189] | < 1 µM
O=C1Nc2ccc(Cl)cc2/C1=C\c1ccc(-c2cccc(C(=O)NCC(O)c3ccncc3)c2)o1 (stereo not drawn) [Compound 190] | < 1 µM
CN(C)CCNC(=O)c1cccc(-c2ccc(/C=C3/C(=O)Nc4ccc(Cl)cc43)o2)c1 [Compound 118] | < 1 µM
CCN(CC)CCNC(=O)c1cncc(-c2ccc(/C=C3/C(=O)Nc4ccc(Cl)cc43)o2)c1 [Compound 152] | < 1 µM
Nc1cccc(-c2ccc(/C=C3/C(=O)Nc4ccccc43)o2)c1 [Compound 183] | < 2 µM
NC(=O)c1cccc(-c2ccc(/C=C3/C(=O)Nc4ccccc43)o2)c1 [Compound 166] | < 1 µM
Cc1cnc(CNC(=O)c2ccc(-c3ccc(/C=C4/C(=O)Nc5ccc(Cl)cc54)o3)cc2)cn1 [Compound 140] | < 1 µM

Same assay, conditions: Table 3; DMSO 4%; read-out: PIM1: IC50 (DMSO 4%)

IC50 | SMILES
< 1 µM | CN1CCCN(C(=O)c2ccc(Cl)c(-c3ccc(/C=C4/C(=O)Nc5ccc(F)cc54)o3)c2)CC1
< 1 µM | CN1CCN(c2ccc(-c3ccc(/C=C4\C(=O)Nc5ccc(Cl)cc54)o3)cn2)CC1
